Assay results as given in ChEMBL document CHEMBL1147765, “Discovery of N-(2-hydroxy-2-aryl-cyclohexyl) substituted spiropiperidines as GlyT1 antagonists with improved pharmacological profile” (Bioorg Med Chem Lett, 2006).

Legend:
[1] = Clearance in human microsomes; format: ADME, Microsome; details: human liver microsomes
[2] = Clearance in mouse microsomes; format: ADME, Liver, Microsome
[3] = molecular target: T1, Sodium- and chloride-dependent glycine transporter 1 (Homo sapiens, UniProt P48067); assay: Displacement of [3H]glycine from human GlyT1 by radiometric assay
T1 sequence (P48067 whole entry): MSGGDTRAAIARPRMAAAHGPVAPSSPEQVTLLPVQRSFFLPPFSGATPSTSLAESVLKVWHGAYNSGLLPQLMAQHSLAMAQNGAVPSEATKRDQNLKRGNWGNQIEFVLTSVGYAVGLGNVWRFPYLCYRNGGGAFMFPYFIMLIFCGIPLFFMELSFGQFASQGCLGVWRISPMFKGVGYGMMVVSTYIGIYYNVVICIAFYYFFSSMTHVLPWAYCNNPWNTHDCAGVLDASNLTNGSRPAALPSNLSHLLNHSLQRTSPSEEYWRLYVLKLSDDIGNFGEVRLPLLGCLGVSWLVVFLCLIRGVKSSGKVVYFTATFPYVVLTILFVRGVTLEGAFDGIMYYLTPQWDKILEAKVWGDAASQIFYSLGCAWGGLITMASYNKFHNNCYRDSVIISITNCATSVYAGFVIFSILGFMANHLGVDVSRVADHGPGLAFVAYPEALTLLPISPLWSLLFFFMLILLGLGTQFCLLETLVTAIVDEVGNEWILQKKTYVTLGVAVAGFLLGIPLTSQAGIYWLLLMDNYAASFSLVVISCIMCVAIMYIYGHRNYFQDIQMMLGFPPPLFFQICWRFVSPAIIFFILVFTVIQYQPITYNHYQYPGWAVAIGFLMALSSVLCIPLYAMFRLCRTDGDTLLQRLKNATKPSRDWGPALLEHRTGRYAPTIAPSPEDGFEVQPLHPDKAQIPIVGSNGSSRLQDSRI

[4] = molecular target: T2, Sodium- and chloride-dependent glycine transporter 2 (Homo sapiens, UniProt Q9Y345); assay: Displacement of [3H]glycine from human GlyT2 by radiometric assay
T2 sequence (Q9Y345 whole entry): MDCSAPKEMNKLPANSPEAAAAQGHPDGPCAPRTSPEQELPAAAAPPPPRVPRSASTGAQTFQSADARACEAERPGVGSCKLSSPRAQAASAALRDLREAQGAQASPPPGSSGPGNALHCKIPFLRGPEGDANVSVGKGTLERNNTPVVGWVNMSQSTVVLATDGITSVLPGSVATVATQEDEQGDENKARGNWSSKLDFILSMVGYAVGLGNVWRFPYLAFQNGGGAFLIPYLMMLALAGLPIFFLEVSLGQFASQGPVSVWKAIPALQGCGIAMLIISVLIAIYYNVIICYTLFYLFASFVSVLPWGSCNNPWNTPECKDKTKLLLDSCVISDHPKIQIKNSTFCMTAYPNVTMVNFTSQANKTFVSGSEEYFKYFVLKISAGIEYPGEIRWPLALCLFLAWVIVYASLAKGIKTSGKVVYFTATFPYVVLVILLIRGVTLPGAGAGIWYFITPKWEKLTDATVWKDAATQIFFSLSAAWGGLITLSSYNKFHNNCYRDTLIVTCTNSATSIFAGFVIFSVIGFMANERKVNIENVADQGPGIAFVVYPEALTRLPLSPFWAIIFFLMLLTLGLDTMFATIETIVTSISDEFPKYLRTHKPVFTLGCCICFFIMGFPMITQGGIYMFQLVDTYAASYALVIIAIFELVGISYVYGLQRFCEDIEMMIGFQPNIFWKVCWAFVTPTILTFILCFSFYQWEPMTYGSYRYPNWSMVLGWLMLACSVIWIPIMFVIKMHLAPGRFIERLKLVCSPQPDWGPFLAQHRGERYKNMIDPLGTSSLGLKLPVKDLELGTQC

[5] = Maximum achievable bioavailability in mouse microsomes; format: ADME, Liver, microsome; details: read-out: Max Achievable Bioavailability
[6] = Maximum achievable bioavailability in human microsomes; format: ADME, Microsome; details: human liver microsomes, read-out: Max Achievable Bioavailability

Compound | EC50 [3] | EC50 [4] | also measured
CCCN1CNC(=O)C12CCN([C@H]1CCCC[C@H]1c1ccccc1)CC2 (racemic) | – | – | microsomal CLint [1]: 25 µL/min/mg; microsomal CLint [2]: 10 µL/min/mg
O=C1NCN(c2ccccc2)C12CCN([C@@H]1CCCC[C@@]1(O)C1CCCCC1)CC2 (racemic) | 17000 nM | – | –
O=C1NCN(c2ccccc2)C12CCN([C@@H]1CCCC[C@@]1(O)Cc1ccccc1)CC2 (racemic) | 4400 nM | – | –
O=C1NCN(c2ccccc2)C12CCN([C@@H]1COCC[C@@]1(O)c1ccccc1)CC2 (racemic) | 58 nM | 35000 nM | –
O=C1NCN(c2ccccc2)C12CCN([C@@H]1CCCC[C@@]1(O)c1cccc(Cl)c1)CC2 (racemic) | 130 nM | 21000 nM | –
COc1ccc([C@]2(O)CCCC[C@H]2N2CCC3(CC2)C(=O)NCN3c2ccccc2)cc1 (racemic) | 261 nM | 67000 nM | –
O=C1NCN(c2ccc(F)cc2)C12CCN([C@@H]1CCCC[C@@]1(O)c1ccc(F)cc1)CC2 (racemic) | 24 nM | 36000 nM | microsomal CLint [1]: 92 µL/min/mg; microsomal CLint [2]: 102 µL/min/mg
C[C@]1(O)CCCC[C@H]1N1CCC2(CC1)C(=O)NCN2c1ccccc1 (racemic) | 9000 nM | – | –
CC(C)(C)[C@]1(O)CCCC[C@H]1N1CCC2(CC1)C(=O)NCN2c1ccccc1 (racemic) | 29000 nM | – | –
O=C1NCN(c2ccc(Cl)cc2)C12CCN([C@@H]1CCCC[C@@]1(O)c1ccc(F)cc1)CC2 (racemic) | 15 nM | 2500 nM | –
Cc1ccc([C@]2(O)CCCC[C@H]2N2CCC3(CC2)C(=O)NCN3c2ccccc2)cc1 (racemic) | 140 nM | 25000 nM | –
O=C1NCN(c2ccccc2)C12CCN([C@H]1CCCC[C@@]1(O)c1ccccc1)CC2 (racemic) | 56 nM | 26000 nM | –
O=C1NCN(c2ccccc2)C12CCN([C@@H]1CCCC[C@@]1(O)c1ccc(F)cc1)CC2 (relative stereo) | 40 nM | 57000 nM | –
Cc1ccccc1[C@]1(O)CCCC[C@H]1N1CCC2(CC1)C(=O)NCN2c1ccccc1 (racemic) | 50 nM | 70000 nM | –
O=C1NCN(c2ccccc2)C12CCN([C@@H]1CCCC[C@@]1(O)c1ccc(Cl)c(Cl)c1)CC2 (racemic) | 173 nM | 6000 nM | –
O=C1NCN(c2ccccc2)C12CCN([C@@H]1CCOC[C@@]1(O)c1ccccc1)CC2 (racemic) | 90 nM | > 100000 nM | –
O=C1NCN(c2ccccc2)C12CCN([C@@H]1CCCC[C@@]1(O)c1ccc(Cl)cc1)CC2 (racemic) | 80 nM | 16000 nM | –
CC(C)[C@]1(O)CCCC[C@H]1N1CCC2(CC1)C(=O)NCN2c1ccccc1 (mixture of isomers) | > 3000 nM | – | –
O=C1NCN(c2ccccc2)C12CCN([C@@H]1CCCC[C@@]1(O)c1ccncc1)CC2 (racemic) | 62 nM | > 100000 nM | –
COc1cccc([C@]2(O)CCCC[C@H]2N2CCC3(CC2)C(=O)NCN3c2ccccc2)c1 (racemic) | 130 nM | 41000 nM | –
CCCN1CNC(=O)C12CCN([C@@H]1CCCC[C@@]1(O)c1ccccc1)CC2 (racemic) | 400 nM | – | microsomal CLint [1]: 5 µL/min/mg; Fh [5]: 81%; microsomal CLint [2]: 7 µL/min/mg; Fh [6]: 84%
O=C1NCN(c2ccccc2)C12CCN([C@@H]1CCCC[C@@]1(O)c1ccccc1)CC2 (racemic) | 44 nM | 72000 nM | –
O=C1NCN(c2ccccc2)C12CCN([C@H]1CCCC[C@H]1c1ccccc1)CC2 (racemic) | – | – | microsomal CLint [1]: 68 µL/min/mg
O=C1NCN(c2ccccc2)C12CCN([C@@H]1CCCC[C@@]1(O)c1cccnc1)CC2 (racemic) | 110 nM | – | –
COc1ccc(N2CNC(=O)C23CCN([C@@H]2CCCC[C@@]2(O)c2ccc(Cl)cc2)CC3)cc1 (racemic) | 99 nM | 25000 nM | –
O=C1NCN(c2ccc(F)cc2)C12CCN([C@@H]1CCCC[C@@]1(O)c1ccc(Cl)cc1)CC2 (racemic) | 24 nM | 19000 nM | –
O=C1NCN(c2ccccc2)C12CCN([C@@H]1CCCC[C@@]1(O)c1ccccn1)CC2 (racemic) | 130 nM | > 100000 nM | –
